From patent US20240254129A1, “HETEROCYCLIC COMPOUNDS AND USES THEREOF” (Kumquat Biosciences Inc., priority 2021, published 2024)
pIC50: −log10 of the molar value.

Legend:
[1] = molecular target: GST-tagged K-Ras mutant / His-tagged hSOS1 (Homo sapiens, UniProt P01116); experiment: HTRF assay, K-Ras mutant / SOS1 interaction; type: binding; settings: compound nos. 401-703; read-out: IC50 against mutant Kras
How it was run: (§1)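 HTRF read-out (ex 337, em 620 and 665 nm) of Ras–SOS1 equilibrium binding: Eu-anti-GST on GST-K-Ras, XL665-anti-6His on His-hSOS1. Incubation about 10 min or longer; IC50 fitted from emission ratio, compounds in duplicate at 10 μM down to 0.01 μM.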

[2] = molecular target: T1, wildtype Kras / hSOS1 (Homo sapiens, UniProt P01116); experiment: HTRF assay, wildtype Kras / SOS1 interaction; type: binding; settings: compound nos. 401-703; read-out: IC50 against wildtype Kras
T1 construct: made in house; host or cells: E. coli BL21 (DE3)
How it was run: as §1

Sequence of GST-tagged K-Ras mutant / His-tagged hSOS1 (P01116 whole entry G12D, form open): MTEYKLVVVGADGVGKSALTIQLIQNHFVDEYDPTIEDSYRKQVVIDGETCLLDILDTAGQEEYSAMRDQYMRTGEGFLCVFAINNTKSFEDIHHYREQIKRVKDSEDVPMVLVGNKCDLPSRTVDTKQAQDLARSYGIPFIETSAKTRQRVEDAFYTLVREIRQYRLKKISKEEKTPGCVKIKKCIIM
T1 sequence (P01116 1-188 isoform P01116-2): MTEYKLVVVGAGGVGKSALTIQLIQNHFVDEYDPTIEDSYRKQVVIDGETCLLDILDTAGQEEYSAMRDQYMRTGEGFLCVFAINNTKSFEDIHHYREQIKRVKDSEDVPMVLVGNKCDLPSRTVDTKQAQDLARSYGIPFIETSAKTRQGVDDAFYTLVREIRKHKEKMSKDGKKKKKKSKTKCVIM

Row | pIC50 [1] | pIC50 [2] | SMILES
1 | < 6.30 | > 6.30 | CN(C)CC1(COc2nc(N3CC4CCC(C3)N4)c3ccc(-c4cccc5cccc(Cl)c45)c(F)c3n2)CC1 [Compound 447, 1-(1-(((4-(3,8-diazabicyclo-[3.2.1]octan-3-yl)-7-(8-chloronaphthalen-1-yl)-8-fluoroquinazolin-2-yl)oxy)-methyl)cyclopropyl)-N,N-dimethylmethanamine]
2 | > 6.30 | > 6.30 | CO[C@@H]1CN(C)C[C@H]1Oc1nc(N2CC3CCC(C2)N3)c2cc(Cl)c(-c3ccc(F)c4sc(N)nc34)c(F)c2n1 [Compound 448, 4-(4-(3,8-diazabicyclo-[3.2.1]-octan-3-yl)-6-chloro-8-fluoro-2-(((3R,4R)-4-methoxy-1-methylpyrrolidin-3-yl)oxy)quinazolin-7-yl)-7-fluorobenzo[d]thiazol-2-amine]
3 | < 6.30 | > 6.30 | Nc1ccc(-c2ccccc2-c2c(Cl)cc3c(N4CCCCCC4)nc(OCC45CCCN4CCC5)nc3c2F)cc1 [Compound 450, 2′-(4-(azepan-1-yl)-6-chloro-8-fluoro-2-((tetrahydro-1H-pyrrolizin-7a(5H)-yl)meth-oxy)quinazolin-7-yl)-[1,1′-biphenyl]-4-amine]
4 | < 6.30 | > 6.30 | N#CCCc1cc2c(N3CC4CCC(C3)N4)nc(OC[C@@]34CCCN3C[C@H](F)C4)nc2c(F)c1-c1cccc2ccc(F)c(Cl)c12 [Compound 451, 3-(4-(3,8-diazabicyclo-[3.2.1]octan-3-yl)-7-(8-chloro-7-fluoronaphthalen-1-yl)-8-fluoro-2-(((2R,7aS)-2-fluorotetrahydro-1H-pyrrolizin-7a(5H)-yl)meth-oxy)quinazolin-6-yl)pro-panenitrile]
5 | > 6.30 | > 6.30 | Nc1nc2c(-c3c(Cl)cc4c(N5CCNCC(F)(F)C5)nc(OCC5(CN6CCCC6)CC5)nc4c3F)ccc(F)c2s1 [Compound 452, 4-(6-chloro-4-(6,6-difluoro-1,4-diazepan-1-yl)-8-fluoro-2-((1-(pyrrolidin-1-ylmeth-yl)cyclopropyl)methoxy)-quinazolin-7-yl)-7-fluoro-benzo[d]thiazol-2-amine]
6 | < 6.30 | > 6.30 | CN1CCC[C@H]1COc1nc(N2CCCC(C3CC3)CC2)c2cc(Cl)c(-c3cccc4sc(N)nc34)c(F)c2n1 (stereo partly drawn) [Compound 453, 4-(6-chloro-4-(4-cycloprop-propylazepan-1-yl)-8-fluoro-2-(((S)-1-methylpyrrolidin-2-yl)methoxy)quinazolin-7-yl)benzo[d]thiazol-2-amine]
7 | > 6.30 | > 6.30 | Nc1nc2c(-c3c(Cl)cc4c(N5CC6CCC(C5)O6)nc(OC[C@@]56CCCN5C[C@H](F)C6)nc4c3F)ccc(F)c2s1 [Compound 454, 4-(4-(8-oxa-3-azabicyclo-[3.2.1]octan-3-yl)-6-chloro-8-fluoro-2-(((2R,7aS)-2-fluorotetrahydro-1H-pyrrolizin-7a(5H)-yl)meth-oxy)quinazolin-7-yl)-7-fluorobenzo[d]thiazol-2-amine]
8 | > 6.30 | > 6.30 | CN1CCC[C@H]1COc1nc(N2CCCCC(C(N)=O)C2)c2cc(Cl)c(-c3cccc4sc(N)nc34)c(F)c2n1 (stereo partly drawn) [Compound 455, 1-(7-(2-aminobenzo[d]-thiazol-4-yl)-6-chloro-8-fluoro-2-(((S)-1-methylpyr-rolidin-2-yl)methoxy)quin-zolin-4-yl)azepane-3-carboxamide]
9 | < 6.30 | > 6.30 | Nc1nc2c(-c3c(Cl)cc4c(N5CC6CCC(C5)N6)nc(OCCCN5CCCC5)nc4c3F)ccc(F)c2s1 [Compound 457, 4-(4-(3,8-diazabicyclo-[3.2.1]octan-3-yl)-6-chloro-8-fluoro-2-(3-(pyrrolidin-1-yl)propoxy)quinazolin-7-yl)-7-fluorobenzo[d]thiazol-2-amine]
10 | < 6.30 | > 6.30 | Nc1ccc(C2CC2)c(-c2ccc3c(N4CC5CCC(C4)N5)nc(OC[C@@]45CCCN4C[C@H](F)C5)nc3c2F)n1 [Compound 458, 6-(4-(3,8-diazabicyclo-[3.2.1]octan-3-yl)-8-fluoro-2-(((2R,7aS)-2-fluorotetra-hydro-1H-pyrrolizin-7a(5H)-yl)methoxy)quinazolin-7-yl)-5-cyclopropylpyridin-2-amine]
11 | > 6.30 | > 6.30 | CN1CCC[C@H]1COc1nc(N2CCCC(F)C(F)(F)C2)c2cc(Cl)c(-c3cccc4sc(N)nc34)c(F)c2n1 (stereo partly drawn) [Compound 459, 4-(6-chloro-8-fluoro-2-(((S)-1-methylpyrrolidin-2-yl)-methoxy)-4-(3,3,4-trifluoro-azepan-1-yl)quinazolin-7-yl)benzo[d]thiazol-2-amine]
12 | > 6.30 | > 6.30 | CC(C)CN1CCCN(c2nc(OCC34CCCN3CCC4)nc3c(F)c(-c4ccc(F)c5sc(N)nc45)c(Cl)cc23)CC1 [Compound 460, 4-(6-chloro-8-fluoro-4-(4-isobutyl-1,4-diazepan-1-yl)-2-((tetrahydro-1H-pyrrolizin-7a(5H)-yl)methoxy)quin-azolin-7-yl)-7-fluorobenzo-[d]thiazol-2-amine-]
13 | < 6.30 | > 6.30 | Cc1ncc(Oc2nc(N3CCCCCC3)c3cc(Cl)c(-c4cccc5sc(N)nc45)c(F)c3n2)cn1 [Compound 461, 4-(4-(azepan-1-yl)-6-chloro-8-fluoro-2-((2-methylpyrim-idin-5-yl)oxy)quinazolin-7-yl)benzo[d]thiazol-2-amine]
14 | > 6.30 | > 6.30 | Cc1ccc2oc(N)nc2c1-c1c(Cl)cc2c(N3CCNCC(F)(F)C3)nc(OC[C@@H]3CCCN3C)nc2c1F [Compound 462, 4-(6-chloro-4-(6,6-difluoro-1,4-diazepan-1-yl)-8-fluoro-2-(((S)-1-methylpyrrolidin-2-yl)methoxy)quinazolin-7-yl)-5-methylbenzo[d]oxazol-2-amine]
15 | > 6.30 | > 6.30 | Cc1ccc2oc(N)nc2c1-c1c(Cl)cc2c(N3CCNCC(F)(F)C3)nc(OC[C@@]34CCCN3C[C@H](F)C4)nc2c1F [Compound 463, 4-(6-chloro-4-(6,6-difluoro-1,4-diazepan-1-yl)-8-fluoro-2-(((2R,7aS)-2-fluorotetra-hydro-1H-pyrrolizin-7a(5H)-yl)methoxy)quinazolin-7-yl)-5-methylbenzo[d]oxazol-2-amine]
16 | > 6.30 | > 6.30 | N#CCCc1cc2c(N3CC4CCC(C3)N4)nc(OC[C@@]34CCCN3C[C@H](F)C4)nc2c(F)c1-c1ccc(F)c2sc(N)c(C#N)c12 [Compound 464, 4-(4-(3,8-diazabicyclo-[3.2.1]octan-3-yl)-6-(2-cyanoethyl)-8-fluoro-2-(((2R,7aS)-2-fluorotetra-hydro-1H-pyrrolizin-7a(5H)-yl)methoxy)quin-azolin-7-yl)-2-amino-7-fluorobenzo[b]thiophene-3-carbonitrile]
17 | > 6.30 | > 6.30 | Nc1nc2c(-c3c(Cl)cc4c(N5CCCOC(CO)C5)nc(OCC56CCCN5CCC6)nc4c3F)cccc2s1 (stereo not shown) [Compound 465, (4-(7-(2-aminobenzo[d]-thiazol-4-yl)-6-chloro-8-fluoro-2-((tetrahydro-1H-pyrrolizin-7a(5H)-yl)meth-oxy)quinazolin-4-yl)-1,4-oxazepan-2-yl)methanol]
18 | > 6.30 | > 6.30 | CN1CCC[C@H]1COc1nc(N2CCC(O)C(F)CC2)c2cc(Cl)c(-c3cccc4sc(N)nc34)c(F)c2n1 (stereo partly drawn) [Compound 466, 1-(7-(2-aminobenzo[d]-thiazol-4-yl)-6-chloro-8-fluoro-2-(((S)-1-methylpyr-rolidin-2-yl)methoxy)quin-azolin-4-yl)-5-fluoroazepan-4-ol]
19 | < 6.30 | > 6.30 | Fc1c(N2CCCc3cccc(Cl)c32)cc(Cl)c2c(N3CCCCCC3)nc(OCC34CCCN3CCC4)nc12 [Compound 467, 4-(azepan-1-yl)-5-chloro-7-(8-chloro-3,4-dihydroquin-olin-1(2H)-yl)-8-fluoro-2-((tetrahydro-1H-pyrrolizin-7a(5H)-yl)methoxy)quin-azoline]
20 | > 6.30 | > 6.30 | Cc1ccc2sc(N)nc2c1-c1c(Cl)cc2c(N3CC4CCC(C3)N4)nc(OCC34CCCN3CCC4)nc2c1F [Compound 468, 4-(4-(3,8-diazabicyclo-[3.2.1]octan-3-yl)-6-chloro-8-fluoro-2-((tetrahydro-1H-pyrrolizin-7a(5H)-yl)meth-oxy)quinazolin-7-yl)-5-methylbenzo[d]thiazol-2-amine]
21 | < 6.30 | > 6.30 | Cc1ccc(CN)cc1-c1c(Cl)cc2c(N3CC4CCC(C3)N4)nc(OCC34CCCN3CCC4)nc2c1F [Compound 469, (3-(4-(3,8-diazabicyclo-[3.2.1]octan-3-yl)-6-chloro-8-fluoro-2-((tetrahydro-1H-pyrrolizin-7a(5H)-yl)meth-oxy)quinazolin-7-yl)-4-methylphenyl)methanamine]
22 | > 6.30 | > 6.30 | CN1[C@@H]2CC[C@H]1CN(c1nc(OC[C@@]34CCCN3C[C@H](F)C4)nc3c(F)c(-c4ccc(F)c5sc(N)nc45)c(Cl)cc13)C2 [Compound 470, 4-(6-chloro-8-fluoro-2-(((2R,7aS)-2-fluorotetrahydro-1H-pyrrolizin-7a(5H)-yl)methoxy)-4-((1R,5S)-8-methyl-3,8-diazabicyclo[3.2.1]octan-3-yl)quinazolin-7-yl)-7-fluorobenzo[d]thiazol-2-amine]
23 | > 6.30 | > 6.30 | CN1CCC[C@H]1COc1nc(N2CCCC(NS(=O)(=O)C3CC3)CC2)c2cc(Cl)c(-c3cccc4sc(N)nc34)c(F)c2n1 (stereo partly drawn) [Compound 472, N-(1-(7-(2-aminobenzo[d]-thiazol-4-yl)-6-chloro-8-fluoro-2-(((S)-1-methylpyr-rolidin-2-yl)methoxy)quin-azolin-4-yl)azepan-4-yl)-cyclopropanesulfonamide]
